US10174016B2 (BAYER AKTIENGESELLSCHAFT, priority 2014, dated 2019)
Read-outs that look alike come from different tables or passages of the source.

Experiments:
[1] = molecular target: human P2X2/3 receptor (Homo sapiens (Human), UniProt P56373+Q9UBL9); experiment: Intracellular calcium measurement (FLIPR, Fluo-4) of antagonist activity at human P2X2/3 receptors; assay type: cell-based; conditions: human P2X2/3, FLIPR calcium assay, agonist α,β-Me-ATP; read-out: hP2X2/3 IC50
Method in brief: (§1)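 Antagonism quantified from peak calcium fluorescence (Fluo-4, FLIPR, 90 sec read) evoked by EC80 α,β-Me-ATP, after a 30 min, 37° C. compound pretreatment in 1% DMSO. Human P2X3- or P2X2/3-expressing cells used; triplicate means fitted for IC50, percent maximal inhibition and Hill coefficient.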

[2] = molecular target: human P2X3 receptor (Homo sapiens (Human), UniProt P56373); experiment: Intracellular calcium measurement (FLIPR, Fluo-4) of antagonist activity at human P2X3 receptors; assay type: cell-based; conditions: read-out: hP2X3 IC50
Sequence of human P2X3 receptor (P56373 whole entry): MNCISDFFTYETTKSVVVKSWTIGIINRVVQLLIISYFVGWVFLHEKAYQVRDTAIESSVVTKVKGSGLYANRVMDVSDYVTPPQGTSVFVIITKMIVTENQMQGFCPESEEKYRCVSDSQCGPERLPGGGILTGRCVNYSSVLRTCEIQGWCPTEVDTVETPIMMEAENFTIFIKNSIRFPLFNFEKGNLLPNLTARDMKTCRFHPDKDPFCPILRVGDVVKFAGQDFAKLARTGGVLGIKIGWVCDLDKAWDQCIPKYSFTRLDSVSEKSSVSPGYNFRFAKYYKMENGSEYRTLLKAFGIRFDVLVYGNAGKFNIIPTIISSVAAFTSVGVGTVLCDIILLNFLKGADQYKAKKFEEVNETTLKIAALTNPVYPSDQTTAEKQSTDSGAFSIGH
Method in brief: as §1

[3] = human P2X3, FLIPR calcium assay, agonist α,β-Me-ATP

Sequence of human P2X2/3 receptor (P56373 whole entry): as above
Sequence of human P2X2/3 receptor (Q9UBL9 whole entry): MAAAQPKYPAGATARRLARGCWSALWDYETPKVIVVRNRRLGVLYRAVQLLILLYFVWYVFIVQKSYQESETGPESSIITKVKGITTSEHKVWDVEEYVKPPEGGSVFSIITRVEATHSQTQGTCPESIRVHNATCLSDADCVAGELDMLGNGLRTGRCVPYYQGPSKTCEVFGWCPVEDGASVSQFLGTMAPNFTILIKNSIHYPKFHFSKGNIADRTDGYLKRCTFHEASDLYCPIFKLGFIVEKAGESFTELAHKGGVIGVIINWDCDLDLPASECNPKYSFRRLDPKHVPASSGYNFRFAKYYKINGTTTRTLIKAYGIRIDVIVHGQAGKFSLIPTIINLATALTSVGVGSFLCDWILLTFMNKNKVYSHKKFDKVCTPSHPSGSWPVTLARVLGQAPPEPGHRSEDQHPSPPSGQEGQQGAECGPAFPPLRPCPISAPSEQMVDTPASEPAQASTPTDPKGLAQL

| Structure (SMILES) | IC50 [1] [µM] | IC50 [2, 3] [µM] | IC50 [2] [µM] |
| --- | --- | --- | --- |
| Cc1cnc(-c2cc(OC[C@@H]3COCC(=O)N3)cc(C(=O)N[C@H](C)c3cnc(C(F)(F)F)nc3)c2)s1 [Example 403, 3-(5-methyl-1,3-thiazol-2-yl)-5-{[(3S)-5-oxomorpholin-3-yl]methoxy}-N-{(1R)-1-[2-(trifluoromethyl)pyrimidin-5-yl]ethyl}benzamide] | 2.11 | – | 0.056 |
| Cc1cnc(-c2cc(OCC34CC(CO3)N(C(=O)OC(C)(C)C)C4)cc(C(=O)N[C@H](C)c3cnc(C(F)(F)F)nc3)c2)s1 (stereo partly drawn) [Example 404, tert-butyl 1-{[3-(5-methyl-1,3-thiazol-2-yl)-5-({(1R)-1-[2-(trifluoromethyl)pyrimidin-5-yl]ethyl}carbamoyl)phenoxy]methyl}-2-oxa-5-azabicyclo[2.2.1]heptane-5-carboxylate] | 0.533 | 0.044 | – |
| CCCN1CC2(COc3cc(C(=O)N[C@H](C)c4cnc(C(F)(F)F)nc4)cc(-c4ncc(C)s4)c3)CC1CO2 (stereo partly drawn) [Example 408, 3-(5-methyl-1,3-thiazol-2-yl)-5-[(5-propyl-2-oxa-5-azabicyclo[2.2.1]hept-1-yl)methoxy]-N-{(1R)-1-[2-(trifluoromethyl)pyrimidin-5-yl]ethyl}benzamide] | 1.71 | 0.032 | – |
| COC(=O)N1CC2(COc3cc(C(=O)N[C@H](C)c4cnc(C(F)(F)F)nc4)cc(-c4ncc(C)s4)c3)CC1CO2 (stereo partly drawn) [Example 409, Methyl 1-{[3-(5-methyl-1,3-thiazol-2-yl)-5-({(1R)-1-[2-(trifluoromethyl)pyrimidin-5-yl]ethyl}carbamoyl)phenoxy]methyl}-2-oxa-5-azabicyclo[2.2.1]heptane-5-carboxylate] | 0.976 | 0.022 | – |
| CCOC(=O)N1CC2(COc3cc(C(=O)N[C@H](C)c4cnc(C(F)(F)F)nc4)cc(-c4ncc(C)s4)c3)CC1CO2 (stereo partly drawn) [Example 410, Ethyl 1-{[3-(5-methyl-1,3-thiazol-2-yl)-5-({(1R)-1-[2-(trifluoromethyl)pyrimidin-5-yl]ethyl}carbamoyl)phenoxy]methyl}-2-oxa-5-azabicyclo[2.2.1]heptane-5-carboxylate] | 0.906 | 0.022 | – |
| CCc1cnc(-c2cc(OC[C@@H]3CNCCO3)cc(C(=O)N[C@H](C)c3ccc(C(F)(F)F)nn3)c2)s1 [Example 414, 3-(5-ethyl-1,3-thiazol-2-yl)-5-[(2S)-morpholin-2-ylmethoxy]-N-{(1R)-1-[6-(trifluoromethyl)pyridazin-3-yl]ethyl}benzamide] | 2.27 | 0.029 | – |
| Cc1cnc(-c2cc(OC[C@H]3CN(C)CCO3)cc(C(=O)N[C@@H](C)c3cnc(C(F)(F)F)nc3)c2)s1 [Example 416, 3-{[(2R)-4-methylmorpholin-2-yl]methoxy}-5-(5-methyl-1,3-thiazol-2-yl)-N-{(1S)-1-[2-(trifluoromethyl)pyrimidin-5-yl]ethyl}benzamide] | ≥ 10 | – | 0.227 |
| Cc1cnc(-c2cc(OC[C@@H]3CN(C)CCO3)cc(C(=O)N[C@@H](C)c3cnc(C(F)(F)F)nc3)c2)s1 [Example 417, 3-{[(2S)-4-methylmorpholin-2-yl]methoxy}-5-(5-methyl-1,3-thiazol-2-yl)-N-{(1S)-1-[2-(trifluoromethyl)pyrimidin-5-yl]ethyl}benzamide] | ≥ 10 | – | 0.434 |
| CCc1cnc(-c2cc(OC[C@@H]3CN(C)CCO3)cc(C(=O)N[C@H](C)c3ccc(C(F)(F)F)nn3)c2)s1 [Example 418, 3-(5-Ethyl-1,3-thiazol-2-yl)-5-{[(2S)-4-methylmorpholin-2-yl]methoxy}-N-{(1R)-1-[6-(trifluoromethyl)pyridazin-3-yl]ethyl}benzamide] | 1.56 | 0.023 | – |

Now from value to molecule, other results behind:

| IC50 [1] [µM] | IC50 [2, 3] [µM] | Structure (SMILES) | IC50 [2] [µM] |
| --- | --- | --- | --- |
| 1.36 | 0.015 | Cc1cnc(-c2cc(OC[C@@H]3CN(C)C(=O)O3)cc(C(=O)N[C@H](C)c3cnc(C(F)(F)F)nc3)c2)s1 [Example 397, 3-{[(5S)-3-methyl-2-oxo-1,3-oxazolidin-5-yl]methoxy}-5-(5-methyl-1,3-thiazol-2-yl)-N-{(1R)-1-[2-(trifluoromethyl)pyrimidin-5-yl]ethyl}benzamide] | – |
| 1.8 | 0.017 | Cc1cnc(-c2cc(OC[C@H]3CN(C)C(=O)O3)cc(C(=O)N[C@H](C)c3cnc(C(F)(F)F)nc3)c2)s1 [Example 398, 3-{[(5R)-3-methyl-2-oxo-1,3-oxazolidin-5-yl]methoxy}-5-(5-methyl-1,3-thiazol-2-yl)-N-{(1R)-1-[2-(trifluoromethyl)pyrimidin-5-yl]ethyl}benzamide] | – |
| 1.72 | 0.069 | Cc1cnc(-c2cc(OC[C@H]3CN(C)C(=O)CO3)cc(C(=O)N[C@H](C)c3cnc(C(F)(F)F)nc3)c2)s1 [Example 399, 3-{[(2R)-4-methyl-5-oxomorpholin-2-yl]methoxy}-5-(5-methyl-1,3-thiazol-2-yl)-N-{(1R)-1-[2-(trifluoromethyl)pyrimidin-5-yl]ethyl}benzamide] | – |
| 1.48 | 0.059 | Cc1cnc(-c2cc(OC[C@@H]3CNC(=O)CO3)cc(C(=O)N[C@H](C)c3cnc(C(F)(F)F)nc3)c2)s1 [Example 400, 3-(5-methyl-1,3-thiazol-2-yl)-5-{[(2S)-5-oxomorpholin-2-yl]methoxy}-N-{(1R)-1-[2-(trifluoromethyl)pyrimidin-5-yl]ethyl}benzamide] | – |
| 1.47 | 0.03 | Cc1cnc(-c2cc(OC[C@@H]3CN(C)C(=O)CO3)cc(C(=O)N[C@H](C)c3cnc(C(F)(F)F)nc3)c2)s1 [Example 401, 3-{[(2S)-4-methyl-5-oxomorpholin-2-yl]methoxy}-5-(5-methyl-1,3-thiazol-2-yl)-N-{(1R)-1-[2-(trifluoromethyl)pyrimidin-5-yl]ethyl}benzamide] | – |
| 1.25 | 0.021 | Cc1cnc(-c2cc(OC[C@@H]3COCC(=O)N3C)cc(C(=O)N[C@H](C)c3cnc(C(F)(F)F)nc3)c2)s1 [Example 402, 3-{[(3S)-4-methyl-5-oxomorpholin-3-yl]methoxy}-5-(5-methyl-1,3-thiazol-2-yl)-N-{(1R)-1-[2-(trifluoromethyl)pyrimidin-5-yl]ethyl}benzamide] | – |
| 1.56 | 0.017 | Cc1cnc(-c2cc(OCC34CC(CO3)N(C(C)C)C4)cc(C(=O)N[C@H](C)c3cnc(C(F)(F)F)nc3)c2)s1 (stereo partly drawn) [Example 405, 3-[(5-isopropyl-2-oxa-5-azabicyclo[2.2.1]hept-1-yl)methoxy]-5-(5-methyl-1,3-thiazol-2-yl)-N-{(1R)-1-[2-(trifluoromethyl)pyrimidin-5-yl]ethyl}benzamide] | – |
| 2.03 | 0.026 | Cc1cnc(-c2cc(OCC34CC(CO3)N(C)C4)cc(C(=O)N[C@H](C)c3cnc(C(F)(F)F)nc3)c2)s1 (stereo partly drawn) [Example 406, 3-[(5-methyl-2-oxa-5-azabicyclo[2.2.1]hept-1-yl)methoxy]-5-(5-methyl-1,3-thiazol-2-yl)-N-{(1R)-1-[2-(trifluoromethyl)pyrimidin-5-yl]ethyl}benzamide] | – |
| 0.697 | 0.02 | CCN1CCO[C@H](COc2cc(C(=O)N[C@H](C)c3cnc(C(F)(F)F)nc3)cc(-c3ncc(C)s3)c2)C1 [Example 411, 3-{[(2S)-4-ethylmorpholin-2-yl]methoxy}-5-(5-methyl-1,3-thiazol-2-yl)-N-{(1R)-1-[2-(trifluoromethyl)pyrimidin-5-yl]ethyl}benzamide] | – |
| ≥ 10 | 0.597 | Cc1cnc(-c2cc(OC[C@H]3CNCCO3)cc(C(=O)N[C@@H](C)c3cnc(C(F)(F)F)nc3)c2)s1 [Example 413, 3-(5-methyl-1,3-thiazol-2-yl)-5-[(2R)-morpholin-2-ylmethoxy]-N-{(1S)-1-[2-(trifluoromethyl)pyrimidin-5-yl]ethyl}benzamide] | – |
| 2.18 | 0.01 | CCc1cnc(-c2cc(OC[C@H]3CNCCO3)cc(C(=O)N[C@H](C)c3ccc(C(F)(F)F)nn3)c2)s1 [Example 415, 3-(5-ethyl-1,3-thiazol-2-yl)-5-[(2R)-morpholin-2-ylmethoxy]-N-{(1R)-1-[6-(trifluoromethyl)pyridazin-3-yl]ethyl}benzamide] | – |
